Strand notation (5' to 3'): a small letter for the sugar, then the base; units joined by * are phosphorothioate-linked, units joined directly phosphodiester-linked; [ ] holds rarer units or linkages, { } end groups; capitals alone tell only the bases. e = 2'-O-(2-methoxyethyl) (MOE); [5mC] = 5-methylcytosine; d = 2'-deoxy (DNA)

Data set [1] has as its system captopril-induced vascular permeability. Briefly: Dose-dependent effect on captopril-induced vascular permeability, Evans Blue OD600 (Example 13). It counts as in vivo, mouse. Particulars: for OD600 nm of Evans Blue dye, Colon / OD600 nm of Evans Blue dye, Ears / OD600 nm of Evans Blue dye, Feet / OD600 nm of Evans Blue dye, Intestine: captopril Yes. The procedure:
The effect of varying doses on ISIS 482584 on captopril-induced vascular permeability was evaluated.
Group 1 consisted of 4 mice and was treated with PBS administered subcutaneously twice a week for 3 weeks. No other treatment was administered to Group 1 which served as a control group to measure the basal levels of vascular permeability.
Group 2 consisted of 8 mice and was treated with PBS administered subcutaneously twice a week for 3 weeks. At the end of the treatment period, the mice were intraperitoneally administered 20 μg of captopril. Group 2 served as the control group for captopril-induced vascular permeability.
Group 3 consisted of 4 mice and was treated with PBS administered subcutaneously twice a week for 3 weeks. At the end of the treatment period, the mice were intraperitoneally administered 20 μg of captopril. The mice were also intraperitoneally administered 30 μg of Icatibant (HOE-140). […] served as a positive control for inhibition of captopril-induced vascular permeability.
Groups 4, 5, 6, 7, 8, and 9 consisted of 8 mice each and were treated with 2.5 mg/kg, 5 mg/kg, 10 mg/kg, 20 mg/kg, 40 mg/kg, or 80 mg/kg (corresponding to 5 mg/kg, 10 mg/kg, 20 mg/kg, 40 mg/kg, 80 mg/kg, or 160 mg/kg per week), respectively of ISIS 482584 administered subcutaneously twice a week for 3 weeks. At the end of the treatment period, the mice of all the groups were intraperitoneally administered 20 μg of captopril. Groups 4-9 served as the experimental treatment groups for examining the effect of varying doses of ISIS 482584 on captopril-induced vascular permeability.
All the groups were then injected with 30 mg/kg of Evans Blue solution in the tail vein. The mice were sacrificed 30 min after the Evans Blue solution administration and colons, feet, ears, and intestines were harvested. Blood samples were taken through cardiac puncture.
The harvested tissues were placed in formamide solution overnight to leach out the Evans Blue dye. The formamide solution containing feet and ear tissue was heated to 55° C. and left overnight.

The test system of data set [2] is captopril and ISIS 461756-induced vascular permeability. In words: Evans Blue vascular permeability in captopril and ISIS 461756-induced angioedema mouse models (Example 11). It counts as in vivo. Particulars: for OD600 nm of Evans Blue dye, Colons / OD600 nm of Evans Blue dye, Ears / OD600 nm of Evans Blue dye, Feet / OD600 nm of Evans Blue dye, Intestines: captopril Yes.
Source text: Hereditary angioedema (HAE) is characterized by local swelling and increase in vascular permeability in subcutaneous tissues (Morgan, B. P. N. Engl. J. Med. 363: 581-83, 2010). It is caused by a deficiency of the C1 inhibitor, a protein of the complement system. Two mouse models were used in this study including an established mouse model of C1-INH deficiency and a captopril-induced edema model, both of which cause vascular permeability, a hallmark of HAE. Reversal of vascular permeability is accompanied by increased plasma levels of high molecular weight kininogen (HMWK).
In the first model, angioedema was induced by treatment with Captopril, a known antihypertensive agent, which increases vascular permeability in mice and replicates the pathology of hereditary angioedema.
In the second model, angioedema was induced by treatment with ISIS 461756, an antisense oligonucleotide which targets murine C1 inhibitor mRNA, which increases vascular permeability in mice and replicates the pathology of hereditary angioedema. ISIS 461756 (SEQ ID NO: 2245; […]) is a 5-10-5 MOE gapmer targeting nucleosides 1730-1749 of NM_009776.3 (SEQ ID NO: 2243).
The effect of HOE-140 and ISIS 482584, an antisense oligonucleotide inhibitor of PKK, were evaluated in the Captopril and ISIS 461756-induced mouse models of vascular permeability. Some of the murine groups were treated with HOE-140, a selective antagonist of the bradykinin B2 receptor, which blocks vasodilation and vascular permeability (Cruden and Newby, Expert Opin. Pharmacol. 9: 2383-90, 2008). Other mice were treated with ISIS 482584, which inhibits PKK mRNA expression. The effect of treatment with HOE-140 was compared with the effect of treatment with ISIS 482584.
Group 1 consisted of 4 C57BL/6J-Tyrc-2J mice treated with PBS administered subcutaneously twice a week for 4 weeks. No other treatment was administered to Group 1 which served as a control group to measure the basal level of vascular permeability.
Group 2 consisted of 8 C57BL/6J-Tyrc-2J mice treated with PBS administered subcutaneously twice a week for 4 weeks. At the end of the treatment, the mice were intraperitoneally administered 20 μg of captopril. Group 2 served as a PBS control group for captopril-induced vascular permeability.
(§1) Group 3 consisted of 8 C57BL/6J-Tyrc-2J mice treated with PBS administered subcutaneously twice a week for 4 weeks. On day 14, the mice were treated with 50 mg/kg of the antisense oligonucleotide targeting C1 inhibitor, ISIS 461756, administered subcutaneously twice a week for 2 weeks. At the end of the treatment period, the mice were intraperitoneally administered 20 μg of captopril. Group 3 served as a PBS control group for captopril and ISIS 461756-induced vascular permeability.
Group 4 consisted of 8 C57BL/6J-Tyrc-2J mice treated with PBS administered subcutaneously twice a week for 4 weeks. On day 14, the mice were treated with 50 mg/kg of the antisense oligonucleotide targeting C1 inhibitor, ISIS 461756, administered subcutaneously twice a week for 2 weeks. At the end of the treatment period, the mice were intraperitoneally administered 20 μg of captopril. The mice were then also intraperitoneally administered 30 μg of HOE-140. Group 4 served as a positive control for inhibition of vascular permeability with HOE-140.
as §1, with “5” for “3”, “40 mg/kg of control oligonucleotide ISIS 141923, a 5-10-5 MOE gapmer with no known murine target, ([…]; SEQ ID NO: 2246)” for “PBS”, “a” for “a PBS”, “permeability. […]” for “permeability.”

Setting [3] is: ISIS 461756 Yes, ISIS oligonucleotides 40 mg/kg sc twice a week 4 weeks, HOE-140 30 μg ip.
Where [4] appears, read: dose 5 mg/kg, sc twice a week 3 weeks.
Where [5] appears, read: dose 10 mg/kg, sc twice a week 3 weeks.
Where [6] appears, read: dose 20 mg/kg, sc twice a week 3 weeks.
[7] abbreviates: dose 40 mg/kg, sc twice a week 3 weeks.
[8] abbreviates: dose 80 mg/kg, sc twice a week 3 weeks.
Setting [9] is: dose 160 mg/kg, sc twice a week 3 weeks.
Setting [10] is: ISIS 461756 No, 40 mg/kg sc twice a week 4 weeks.

For the molecule `NC(N)=NCCC[C@@H](N)C(=O)N[C@@H](CCCN=C(N)N)C(=O)N1CCC[C@H]1C(=O)N1C[C@H](O)C[C@H]1C(=O)NCC(=O)N[C@@H](Cc1cccs1)C(=O)N[C@@H](CO)C(=O)N1Cc2ccccc2C[C@@H]1C(=O)N1[C@H](C(=O)N[C@@H](CCCN=C(N)N)C(=O)O)C[C@@H]2CCCC[C@@H]21` [HOE-140, Icatibant, reference compound], in data set [1] (HOE-140 30 μg ip), the “OD600 nm of Evans Blue dye, Colon” value worked out at 0.15; the “OD600 nm of Evans Blue dye, Ears” value is given as 0.04; the “OD600 nm of Evans Blue dye, Feet” value worked out at 0.03; the “OD600 nm of Evans Blue dye, Intestine” value was 0.10. Also, in data set [2] (setting [3]), the “OD600 nm of Evans Blue dye, Colons” value worked out at 0.14; the “OD600 nm of Evans Blue dye, Ears” value worked out at 0.09; the “OD600 nm of Evans Blue dye, Feet” value turned out to be 0.07; the “OD600 nm of Evans Blue dye, Intestines” value is 0.18.
Regarding “ISIS 482584: 5-10-5 MOE gapmer targeting murine PKK, GGCATATTGGTTTTTGGAAT; SEQ ID NO: 2244 (antisense eG*eG*e[5mC]*eA*eT*dA*dT*dT*dG*dG*dT*dT*dT*dT*dT*eG*eG*eA*eA*eT)”, the “OD600 nm of Evans Blue dye, Colon” value in data set [1] (setting [4]) was 0.41; in data set [1] (setting [5]) it was 0.41; in data set [1] (setting [6]) it was 0.40; in data set [1] (setting [7]), 0.36; in data set [1] (setting [8]), 0.21; in data set [1] (setting [9]), 0.26. Moreover, the “OD600 nm of Evans Blue dye, Ears” value in data set [1] (setting [4]) is given as 0.05; in data set [1] (setting [5]) it was 0.05; in data set [1] (setting [6]), 0.07; in data set [1] (setting [7]) it was 0.05; in data set [1] (setting [8]) it was 0.03; in data set [1] (setting [9]), 0.05. Further, the entries for the “OD600 nm of Evans Blue dye, Ears” value in data set [2] (setting [10]) and in data set [2] (setting [3]) were 0.14 and 0.06, respectively. Moreover, the “OD600 nm of Evans Blue dye, Feet” value in data set [1] (setting [4]) is 0.10; in data set [1] (setting [5]) it was 0.10; in data set [1] (setting [6]), 0.11; in data set [1] (setting [7]) it was 0.10; in data set [1] (setting [8]), 0.04; in data set [1] (setting [9]) it was 0.10. For the same molecule, the “OD600 nm of Evans Blue dye, Feet” value in data set [2] (setting [10]) and in data set [2] (setting [3]) was 0.07 in each case. In addition, the “OD600 nm of Evans Blue dye, Intestine” value in data set [1] (setting [4]) is listed as 0.17; in data set [1] (setting [5]) it was 0.19; in data set [1] (setting [6]), 0.20; in data set [1] (setting [7]), 0.20; in data set [1] (setting [8]) it was 0.17; in data set [1] (setting [9]) it was 0.15. Further, the “captopril-induced vascular permeability” value in data set [1] (higher doses (Groups 4, 5, and 6) vs PBS control group (Group 2)) is on record as “reduced levels of captopril-induced vascular permeability”. Further, in data set [2] (40 mg/kg s.c. twice a week for 4 weeks, mice treated with captopril or captopril and ISIS 461756, vs PBS controls), the “vascular permeability” value is “prevents vascular permeability”. The figures for the “OD600 nm of Evans Blue dye, Colons” value in data set [2] (setting [10]) and in data set [2] (setting [3]) were 0.27 and 0.21, respectively. In addition, the “OD600 nm of Evans Blue dye, Intestines” value in data set [2] (setting [10]) came to 0.30; in data set [2] (setting [3]), 0.34.
